Three compounds from patent US5948628A, “Methods of screening for compounds which mimic galectin-1” (The Board of Regents of The University of Oklahoma, priority 1997, dated 1999) can be followed below.

Assay [1] has as its target hamster galectin-1, native lectin (N-terminus SEQ ID NO:1) (Cricetulus griseus, UniProt P48538). As to the kind of experiment: Equilibrium dialysis binding of N-acetyllactosamine. To be noted: stated only as similar affinity to the monomeric mutants. The source says: (§1) Specific mutations were created in the six N-terminal amino acids (SEQ ID NO:1) of hamster galectin-1, as indicated in FIG. 3 and as described in further detail in Cho and Cummings, Biochemistry, 35:13081, 1996, which is hereby incorporated by reference herein in its entirety. C2S-Gal-1 (SEQ ID NO:2) contains a single replacement of Cys-2 to Ser. V5D-Gal-1 (SEQ ID NO:3) contains a single mutation of Val-5 to Asp. N-Gal-1 (SEQ ID NO:4) contains disruptions of three hydrophobic amino acids at the N-terminus. We also made another mutant construct, termed N/C-Gal-1, which contained the amino terminal changes of N-Gal-1 in addition to multiple changes in specific hydrophobic amino acids at the C-terminus (data not shown). All mutants, except for C2S-Gal-1, behaved as monomers in size exclusion HPLC and native gel electrophoresis. C2S-Gal-1 was indistinguishable from the native lectin in its ability to undergo monomer-dimer equilibrium and in its carbohydrate-binding affinity. […] However, in equilibrium dialysis N-Gal-1 and V5D-Gal-1 bound N-acetyllactosamine with similar affinity (Kd ≈90 μM) to that of the C2S-Gal-1 and the native lectin. […] N/C-Gal-1 was non-functional.
Background: Equilibrium dialysis compares concentrations on both sides of a semipermeable membrane.

Assay [2] deals with T1, hamster galectin-1 mutant N-Gal-1 (monomeric; three hydrophobic N-terminal amino acids disrupted), SEQ ID NO:4 (Cricetulus griseus, UniProt P48538, A7S/C3S/L5Q/V6D).
T1 construct: made in house; host or cells: E. coli
The assay is described as above.
From the text: as §1

Assay [3] concerns the target T2, hamster galectin-1 mutant C2S-Gal-1 (Cys-2 to Ser), SEQ ID NO:2 (Cricetulus griseus, UniProt P48538, C3S).
T2 construct: made in house; host or cells: E. coli
Described as above. Conditions: stated only as similar affinity to the monomeric mutants.
From the text: as §1

The target in assay [4] is T3, hamster galectin-1 mutant V5D-Gal-1 (Val-5 to Asp), SEQ ID NO:3 (Cricetulus griseus, UniProt P48538, V6D).
T3 construct: made in house; host or cells: E. coli
The assay is described as above.
From the text: as §1

For assay [5], the target named is T4, recombinant galectin-1 (Cys at 2nd residue converted to Ser) (Cricetulus griseus, UniProt P48538, C3S).
T4 construct: made in house; host or cells: E. coli
As to the kind of experiment: Cell agglutination by galectin-1. It is filed as cell-based, hamster. Here is the method:
In all cases cell binding of galectin-1 to cells was inhibited by 10 mM lactose, a known inhibitor of galectin-1 (FIG. 1), but not by 10 mM maltose, an isomeric, non-inhibitory analog (data not shown). We noted that both activated neutrophils and desialylated HL-60 cells are strongly agglutinated by galectin-1, whereas resting neutrophils and HL-60 cells are not appreciably agglutinated, which further underscores the profound differences in surface phenotypes between resting and activated neutrophils.

Assay [6] addresses T4, recombinant galectin-1 (Cys at 2nd residue converted to Ser). Briefly: Binding of biotinylated galectin-1 to activated neutrophils and desialylated HL-60 cells (flow cytometry). It is filed as cell-based, hamster. To be noted: 10 mM sugar; galectin-1 10 μg/ml; activated neutrophils, desialylated HL-60 cells. From the text:
Isolated neutrophils were activated by treatment with PMA and HL-60 cells were desialylated by treatment with neuraminidase. Heparinized blood was obtained from normal donors. Neutrophils were isolated by dextran sedimentation, hypotonic lysis, and density gradient centrifugation on HISTOPAQUE-1077 (Sigma), as described [G. A. Zimmerman, T. M. McIntyre, and S. M. Prescott, J. Clin. Invest., 76:2235, 1985]. Typically, the polymorphonuclear cells were >90% neutrophils by Wright-Giemsa staining and >90% CD16^+ as assessed by flow cytometry. Neutrophils were activated by treatment with phorbol myristate acetate (PMA) (Sigma) (0.5 μM) for 20 minutes at 37° C. in RPMI containing 20% FCS (0.5 ml). HL-60 cells were routinely maintained in RPMI containing 20% FCS. Desialylated HL-60 cells were prepared by treating 3×10^7 cells with Arthrobacter ureafaciens neuraminidase (Sigma) (100 mU) in 500 μl of RPMI containing 20% FCS for 1 hour at 37° C. […] The washed cells were incubated with FITC-streptavidin (1:100 dilution) (Sigma), washed once with PBS, and analyzed by flow cytometry. […] "Unstained" indicates fluorescence of either resting neutrophils or HL-60 cells incubated in the absence of either MAL or galectin-1. "Control" indicates fluorescence of either activated neutrophils or desialylated HL-60 cells incubated with galectin-1 in the presence of 10 mM lactose.
For orientation: A flow cytometer gives signals particle by particle.

Assay [7] shares this target. Briefly: Galectin-1-induced apoptosis of activated neutrophils and desialylated HL-60 cells (annexin V staining). To be noted: galectin-1 10 μM; lactose 10 mM. The format is cell-based, hamster. Here is the method: Resting or activated neutrophils (3×10^6 cells) were treated with galectin-1 (10 μM) in 0.5 ml of HBSS (lacking Ca^2+ /Mg^2+ and containing 0.5% human albumin) for 90 minutes at 37° C. in the presence or absence of 10 mM lactose. HL-60 cells and desialylated HL-60 cells (3×10^6 cells/0.5 ml) were treated with galectin-1 (10 μM) for 20 hours at 37° C. in the presence or absence of 10 mM lactose. At the end of the incubations all cells were treated with 10 mM lactose in PBS to disaggregate the cells. […]
Annexin V is a protein that recognizes phosphatidyl serine (PS) and is a convenient marker for apoptosis of neutrophils and other cells (S. J. Martin, C. P. Reutelingsperger, A. J. McGahon, J. A. Rader, R. C. van Schie, D. M. LaFace and D. R. Green DR, J. Exp. Med., 182:1545, 1995; C. H. Homburg, M. de Haas, A. E. von dem Borne, A. J. Verhoeven, C. P. Reutelingsperger and D. Roos, Blood, 85:532, 1995; I. Vermes, C. Haanen, H. Steffens-Nakken, and C. Reutelingsperger, J. Immunol. Methods, 184:39, 1995; Z. Darzynkiewicz, G. Juan, X. Li, W. Gorczyca, T. Murakami, and F. Traganos, Cytometry 27:1, 1997). […] Within 90 minutes following treatment with 10 μM galectin-1, 36% of the activated neutrophils undergo apoptosis, as determined by their staining with annexin V (FIG. 2A). […]

T4 sequence (P48538 whole entry C3S): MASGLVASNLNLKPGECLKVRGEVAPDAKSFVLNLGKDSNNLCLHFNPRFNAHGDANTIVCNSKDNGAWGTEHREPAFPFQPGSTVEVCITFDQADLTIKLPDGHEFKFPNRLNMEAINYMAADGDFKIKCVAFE
T2 sequence (P48538 whole entry C3S): as above
T3 sequence (P48538 whole entry V6D): as the sequence (P48538 whole entry C3S) above, with S3C, V6D counted along it
T1 sequence (P48538 2-135 C3S/L5Q/V6D/A7S limits assumed): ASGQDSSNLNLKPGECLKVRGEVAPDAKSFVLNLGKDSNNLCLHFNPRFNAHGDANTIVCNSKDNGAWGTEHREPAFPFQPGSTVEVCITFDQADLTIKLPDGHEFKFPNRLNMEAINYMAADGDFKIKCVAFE
Sequence of hamster galectin-1, native lectin (N-terminus SEQ ID NO:1) (P48538 2-135): as the sequence (P48538 2-135 C3S/L5Q/V6D/A7S limits assumed) above, with S2C, Q4L, D5V, S6A counted along it

A word on the Kd: it is the concentration at which binding is half-saturated. A higher Kd goes with a looser complex. Consider `CC(=O)N[C@H]1C(O)O[C@H](CO)[C@@H](O[C@@H]2O[C@H](CO)[C@H](O)[C@H](O)[C@H]2O)[C@@H]1O` (some centres unmarked) [N-acetyllactosamine], for which the Kd in assay [1], in assay [2], in assay [3] and in assay [4] was around 90 µM each time.
With `OC[C@H]1O[C@@H](O[C@H]2[C@H](O)[C@@H](O)C(O)O[C@@H]2CO)[C@H](O)[C@@H](O)[C@H]1O` (some centres unmarked) [lactose], the “Inhibition of cell agglutinating activity of galectin-1” value in assay [5] is “inhibited”. Also, the “Inhibition of cell binding of galectin-1” value in assay [6] is “inhibited”. Further, in assay [7], the “Inhibition of apoptosis-inducing activity of galectin-1” value is “inhibited”.
Turning to `OC[C@H]1O[C@H](O[C@H]2[C@H](O)[C@@H](O)[C@H](O)O[C@@H]2CO)[C@H](O)[C@@H](O)[C@@H]1O` [maltose], the “Inhibition of cell binding of galectin-1” value in assay [6] is “non-inhibitory”.
